In article PMC11125181, “New Inhibitors of Bcr-Abl Based on 2,6,9-Trisubstituted Purine Scaffold Elicit Cytotoxicity in Chronic Myeloid Leukemia-Derived Cell Lines Sensitive and Resistant to TKIs” (Pharmaceutics, 2024):
Where two headings read alike, the source gives them in different places.

Assays:
KCL22 F4 (E255K, 100%) = assay: Cytotoxicity assay (resazurin) on KCL22 subclone F4; type: cell-based; details: Homo sapiens, KCL-22, read-out: GI50 KCL22 F4 E255K (100%), 72 h
Procedure: (§1) Human cell lines KCL22 and BV173 were obtained from the German Collection of Microorganisms and Cell Cultures, K562 and HEK-293T from the European Collection of Authenticated Cell Cultures. KBM5 cell line was kindly gifted by Vladimír Divoký. Development of KCL22 subclones B8 (T315I, 100%), F4 (E255K, 100%), and B10 (Y253H, 50%) was reported previously. All cell lines were cultivated in humidified incubator at 37 °C and in 5% CO2 according to the provider’s instructions in appropriate media supplemented with 10% fetal bovine serum, penicillin (100 IU/mL), streptomycin (100 µg/mL), and glutamine (4 mM).
(§2) Cytotoxicity was determined using resazurin, an indicator dye to measure oxidation-reduction reactions occurring in the mitochondria of live cells. The cells were seeded into 96-well plates and treated with compounds for 72 h (six different doses of each, in triplicate). After treatment, resazurin (Merck, Darmstadt, Germany) solution was added for 4 h, and the fluorescence of formed resorufin corresponding to live cell quantity was measured at 544 nm/590 nm (excitation/emission) using a Fluoroskan Ascent microplate reader (Labsystems, Vantaa, Finland).

KBM5 = assay: Cytotoxicity assay (resazurin) on KBM5; type: cell-based; details: Homo sapiens, read-out: GI50 KBM5
recombinant Abl1 kinase = biological target: T1, recombinant Abl1 kinase (Homo sapiens, UniProt P00519); assay: Recombinant Abl1 kinase inhibition assay ([γ-33P]ATP, peptide substrate); type: biochemical
T1 construct: made in house
T1 sequence (P00519 whole entry): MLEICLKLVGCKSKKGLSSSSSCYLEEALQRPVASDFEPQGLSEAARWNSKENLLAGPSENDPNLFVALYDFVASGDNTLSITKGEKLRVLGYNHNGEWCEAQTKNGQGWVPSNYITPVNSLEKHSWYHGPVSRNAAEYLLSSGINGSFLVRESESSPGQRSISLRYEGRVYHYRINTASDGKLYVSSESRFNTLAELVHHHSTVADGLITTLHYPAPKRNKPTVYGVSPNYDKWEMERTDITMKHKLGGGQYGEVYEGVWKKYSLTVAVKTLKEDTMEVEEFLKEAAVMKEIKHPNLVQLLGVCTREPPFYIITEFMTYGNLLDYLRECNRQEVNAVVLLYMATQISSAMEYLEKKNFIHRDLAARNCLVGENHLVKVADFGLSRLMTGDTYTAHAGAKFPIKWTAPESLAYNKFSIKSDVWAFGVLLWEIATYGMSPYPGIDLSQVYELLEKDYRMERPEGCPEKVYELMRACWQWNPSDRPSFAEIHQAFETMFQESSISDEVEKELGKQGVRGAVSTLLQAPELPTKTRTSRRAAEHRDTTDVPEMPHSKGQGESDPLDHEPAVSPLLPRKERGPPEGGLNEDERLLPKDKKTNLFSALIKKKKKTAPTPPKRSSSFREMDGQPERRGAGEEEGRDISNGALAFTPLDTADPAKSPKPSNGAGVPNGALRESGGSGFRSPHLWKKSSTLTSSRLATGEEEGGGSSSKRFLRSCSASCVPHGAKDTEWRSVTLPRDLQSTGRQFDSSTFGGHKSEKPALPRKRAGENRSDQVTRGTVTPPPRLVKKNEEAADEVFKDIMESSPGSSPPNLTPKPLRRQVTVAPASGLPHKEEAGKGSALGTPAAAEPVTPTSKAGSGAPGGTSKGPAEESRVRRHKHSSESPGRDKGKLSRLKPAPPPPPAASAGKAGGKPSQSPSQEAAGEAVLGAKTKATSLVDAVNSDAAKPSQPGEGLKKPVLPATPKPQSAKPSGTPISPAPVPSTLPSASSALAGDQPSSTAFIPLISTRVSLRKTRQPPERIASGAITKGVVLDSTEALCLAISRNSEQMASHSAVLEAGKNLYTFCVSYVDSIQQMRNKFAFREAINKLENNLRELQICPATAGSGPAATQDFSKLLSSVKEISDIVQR
Procedure: The reactions were stopped by adding 5 µL of 3% aq. H3PO4. […] H3PO4, and air-dried.

BV173 = assay: Cytotoxicity assay (resazurin) on BV173; type: cell-based; details: Homo sapiens, BV-173, 72 h
Procedure: as §1, §2

HEK-293T = assay: Cytotoxicity assay (resazurin) on non-neoplastic HEK-293T; type: cell-based; details: Homo sapiens, 72 h, non-neoplastic cells
Procedure: as §1, §2

[1] = tested on: KCL22 cells containing Bcr-Abl^WT; assay: Cytotoxicity assay (resazurin) on KCL22 WT; type: cell-based, human; details: Homo sapiens, KCL-22, 72 h, read-out: GI50 KCL22 WT
K562 = assay: Cytotoxicity assay (resazurin) on K562; type: cell-based; details: Homo sapiens, 72 h
Procedure: as §1, §2

KCL22 B10 (Y253H, 50%) = assay: Cytotoxicity assay (resazurin) on KCL22 subclone B10; type: cell-based; details: Homo sapiens, KCL-22, read-out: GI50 KCL22 B10 Y253H (50%), 72 h
Procedure: as §1, §2

KCL22 B8 (T315I, 100%) = assay: Cytotoxicity assay (resazurin) on KCL22 subclone B8; type: cell-based; details: Homo sapiens, KCL-22, read-out: GI50 KCL22 B8 T315I (100%), 72 h
Procedure: as §1, §2

[2] = from the IC50 of Table S1, read-out: pIC50 (Table S1) (converted)
[3] = recombinant Abl1, 1 µM ATP, at least three independent experiments, read-out: IC50 Abl
[4] = as listed in Table S1, Bcr-Abl WT, read-out: IC50 (Table S1)

Compound | GI50 (KCL22 F4 (E255K, 100%)) [µM] | GI50 (KBM5; KBM5, 72 h, resazurin assay) [µM] | IC50 (recombinant Abl1 kinase; [2]) [nM] | IC50 (recombinant Abl1 kinase; [3]) [nM] | GI50 (BV173) [µM] | GI50 (HEK-293T) [µM] | GI50 [1] [µM] | GI50 (K562) [nM] | GI50 (KCL22 B10 (Y253H, 50%)) [µM] | GI50 (KCL22 B8 (T315I, 100%)) [µM] | melting point [°C] | IC50 (recombinant Abl1 kinase; [4]) [nM] | GI50 (KBM5; KBM5, 72 h) [µM]
CN1CCN(Cc2ccc(Nc3nc(Nc4cccc(F)c4)c4ncn(CC5CC5)c4n3)cc2)CC1 [Compound 7a, 9-(Cyclopropylmethyl)-N^6-(3-fluorophenyl)-N^2-(4-((4-methylpiperazin-1-yl)methyl)phenyl)-9H-purine-2,6-diamine] | 11.1 ± 0.5 | 4.4 ± 0.8 | 180 | 180 ± 68 | 3.3 ± 1.6 | 6.3 ± 0.7 | 8.1 ± 0.5 | 1500 ± 100 | 7.4 ± 0.6 | 13.8 ± 2 |  |  | 
CN1CCN(Cc2ccc(Nc3nc(Nc4ccc(F)c(F)c4)c4ncn(CC5CC5)c4n3)cc2)CC1 [Compound 7b, 9-(Cyclopropylmethyl)-N^6-(3,4-difluorophenyl)-N^2-(4-((4-methylpiperazin-1-yl)methyl)phenyl)-9H-purine-2,6-diamine] | 10.1 ± 1.2 | 4.2 ± 0.2 | 220 | 225 ± 42 | 1.9 ± 0.1 | 6.3 ± 1.2 | 8.5 ± 1.4 | 1400 ± 200 | 6.6 ± 0.2 | 11.4 ± 3.2 |  |  | 
OCCN1CCN(c2ccc(Nc3nc(Nc4ccccc4)c4ncn(CC5CC5)c4n3)cc2)CC1 [Compound 11a, 2-(4-(4-((9-(Cyclopropylmethyl)-6-(phenylamino)-9H-purin-2-yl)amino)phenyl)piperazin-1-yl)ethan-1-ol] | 12.7 ± 0.1 | 3 ± 0.1 | 37 | 37 ± 12 | 3 ± 0.6 | 9.5 ± 0.7 | 5.7 ± 0.8 | 1200 ± 300 | 6.3 ± 0.4 | > 20 |  |  | 
OCCN1CCN(c2ccc(Nc3nc(Nc4ccc(F)c(F)c4)c4ncn(CC5CC5)c4n3)cc2)CC1 [Compound 11c, 2-(4-(4-((9-(Cyclopropylmethyl)-6-((3,4-difluorophenyl)amino)-9H-purin-2-yl)amino)phenyl)piperazin-1-yl)ethan-1-ol] | 4.1 ± 0.2 | 2.1 ± 0.3 | 19 | 20 ± 1 | 1.7 ± 0.1 | 5 ± 0.9 | 2.9 | 900 ± 200 | 4.1 ± 0.2 | 6.4 ± 0.4 |  |  | 
CC(C)CCn1cnc2c(Nc3ccccc3)nc(Nc3ccc(N4CCN(CCO)CC4)cc3)nc21 [Compound 11d, 2-(4-(4-((9-Isopentyl-6-(phenylamino)-9H-purin-2-yl)amino)phenyl)piperazin-1-yl)ethan-1-ol] | 6.6 ± 0.6 | 5.6 ± 0.4 | 1240 | 1240 ± 220 | 3.6 ± 0.7 | 5.7 ± 1.2 | 8.4 ± 0.3 | 6300 ± 700 | 7.8 ± 0.5 | 7.8 ± 1.3 | 88.6 to 89.2 |  | 
CC(C)CCn1cnc2c(Nc3ccc(F)c(F)c3)nc(Nc3ccc(N4CCN(CCO)CC4)cc3)nc21 [Compound 11f, 2-(4-(4-((6-((3,4-Difluorophenyl)amino)-9-isopentyl-9H-purin-2-yl)amino)phenyl)piperazin-1-yl)ethan-1-ol] | 5.7 ± 0.1 | 5.2 ± 0.1 | 1760 | 1760 ± 740 | 4.5 ± 0.1 | 5.2 ± 0.7 | 6.5 ± 0.2 | 5900 ± 600 | 7 ± 0.5 | 7.2 ± 1 |  |  | 
CCCCCCn1cnc2c(Nc3ccccc3)nc(Nc3ccc(N4CCN(CCO)CC4)cc3)nc21 [Compound 11g, 2-(4-(4-((9-Hexyl-6-(phenylamino)-9H-purin-2-yl)amino)phenyl)piperazin-1-yl)ethan-1-ol] | 8.5 ± 0.9 | 5.4 ± 0.2 | 830 | 834 ± 447 | 5.2 ± 0.2 | 8.6 ± 3.2 | 15.1 ± 2.2 | 4500 ± 1400 | 7.7 ± 0.2 | 10.4 ± 1.8 |  | 830 | 
CCCCCCn1cnc2c(Nc3cccc(F)c3)nc(Nc3ccc(N4CCN(CCO)CC4)cc3)nc21 [Compound 11h, 2-(4-(4-((6-((3-Fluorophenyl)amino)-9-hexyl-9H-purin-2-yl)amino)phenyl)piperazin-1-yl)ethan-1-ol] | 8.1 ± 1.2 | 5.8 ± 0.2 | 670 | 674 ± 69 | 5.2 ± 0.5 | 6 ± 1 | 9.6 ± 1 | 4800 ± 400 | 5.9 ± 0.7 | 9.5 ± 1.5 |  | 670 | 
CCCCCCn1cnc2c(Nc3ccc(F)c(F)c3)nc(Nc3ccc(N4CCN(CCO)CC4)cc3)nc21 [Compound 11i, 2-(4-(4-((6-((3,4-Difluorophenyl)amino)-9-hexyl-9H-purin-2-yl)amino)phenyl)piperazin-1-yl)ethan-1-ol] | > 20 | 5.6 ± 0.2 | 1680 | 1680 ± 10 | 4.8 ± 0.3 | > 20 | > 20 | 3100 ± 600 | > 20 | > 20 | 135.1 to 137.1 |  | 
CN1CCN(c2ccc(Nc3nc(N)c4ncn(CC5CC5)c4n3)cc2)CC1 [Compound 13a, 9-(Cyclopropylmethyl)-N^2-(4-(4-methylpiperazin-1-yl)phenyl)-9H-purine-2,6-diamine] | > 100 | > 100 | 3950 | 3960 ± 510 | > 20 | > 100 | > 100 | > 100000 | > 100 | > 100 | 133 to 134 | 3950 | 
CN1CCN(c2ccc(Nc3nc(NC4CCCCC4)c4ncn(CC5CC5)c4n3)cc2)CC1 [Compound 13b, N^6-cyclohexyl-9-(cyclopropylmethyl)-N^2-(4-(4-methylpiperazin-1-yl)phenyl)-9H-purine-2,6-diamine] | > 20 | > 20 | 11000 | 11100 ± 3310 | > 20 | > 20 | > 20 | 4800 ± 300 | > 20 | > 20 |  | 11100 | 
CN1CCN(c2ccc(Nc3nc(Nc4ccccc4)c4ncn(CC5CC5)c4n3)cc2)CC1 [Compound I, reference compound] | 5.7 ± 0.3 |  |  |  | 2.2 ± 0.2 | 7.5 ± 1.4 |  | 1500 ± 100 | 5.2 ± 0.2 | 17.3 ± 2 |  |  | 2.7 ± 0.1
CN1CCN(c2ccc(Nc3nc(Nc4cccc(F)c4)c4ncn(CC5CC5)c4n3)cc2)CC1 [II, reference compound] | > 20 |  |  |  | 5.3 ± 0.2 | 5.6 ± 0.6 |  | 800 ± 100 | 8.8 ± 0.4 | > 20 |  |  | 5.1 ± 0.5
CN1CCN(c2ccc(Nc3nc(Nc4ccc(F)c(F)c4)c4ncn(CC5CC5)c4n3)cc2)CC1 [III, reference compound] | > 20 |  |  |  | 1.4 ± 0.1 | 5.3 ± 0.3 |  | 1200 ± 400 | 3.4 ± 0.4 | > 20 |  |  | 1.1 ± 0.8
Cc1ccc(NC(=O)c2ccc(CN3CCN(C)CC3)cc2)cc1Nc1nccc(-c2cccnc2)n1 [Imatinib, reference compound] | 9.6 ± 0.5 |  |  |  | 0.199 ± 0.061 | > 10 |  | 231 ± 1 | > 20 | > 20 |  |  | 
